In article PMC4320118, “Micheliolide Derivative DMAMCL Inhibits Glioma Cell Growth In Vitro and In Vivo” (PLoS ONE, 2015):
Entries after “also recorded” stand apart in the source; their conditions may differ. Read-outs that look alike come from different tables or passages of the source.

Columns and labels:
[1] = Biodistribution of DMAMCL in rats after a single oral dose (UPLC-MS/MS); format: in vivo, Wistar rats; design: Mean concentration in brain: unit not given here; settings: single oral dose 100 mg/kg
Description: All rats had free access to food and water. Before drug administration, rats were fasted for 12 h and water was freely available.
Aqueous DMAMCL solutions were administered orally (100 mg/kg) (n = 6 rats per group). Blood and tissue samples from rats were collected at the setting time and analyzed on an ultraperformance liquid chromatography-mass spectrometry (UPLC-MS/MS) system (Waters/Micromass, Milford, MA) using noncompartmental analyses. All the biological specimens were detected at once or stored at -80°C for detection.

[2] = test system: Bcl-2 and Bax in C6 cells; experiment: Western blotting of Bcl-2 and Bax, C6 cells; format: cell-based, rat; settings: 60 μM and 120μM, 24 hr
Description: (§1) The cellular proteins were extracted from 10^7 cultured cells after drug treatments using RIPA lysis buffer (Promega, USA). Western blotting analysis was performed to determine cellular responses targeting apoptosis-related proteins including Bcl-2 and Bax. Briefly, C6 and U-87MG cells were treated with different doses of DMAMCL for 24 hr at 37°C. Then cells were washed twice with cold phosphate buffered saline (PBS) and lysed in RIPA buffer containing 1mmol/l PMSF (Pheylmethylsulfonyl fluoride, Sigma, USA) on ice for 30 min. The total proteins of cells were obtained by centrifugation at 12000 rpm for 15 min. Next, the lysate proteins were resolved by SDS-PAGE and transferred to the Immobilon-P membranes (Millipore, Billerica, MA, USA). The membranes were blocked by 5% nonfat milk in Tris-buffered saline with 0.1% Tween 20 (TBST) and immunoblotted with the antibodies against β-actin, Bcl-2 and Bax (Cellsignaling Technology, USA) at 4°C overnight. Then membranes were incubated with HRP-conjugated secondary antibody for 1.5 hr at room temperature. The targeting antibodies were stained with enhanced chemiluminescent reagents (Millipore, Billerica, MA, USA) and visualized by ChemiScope 3600 Mini systerm (Clinx Science Instruments, China).

[3] = test system: Bcl-2 and Bax in U-87MG cells; experiment: Western blotting of Bcl-2 and Bax, U-87MG cells; format: cell-based, human; settings: 60 μM and 120μM, 24 hr
Description: as §1

[4] = Toxicity of DMAMCL, oral once a day for 21 days; format: in vivo, Wistar rats; design: Cr: unit not given here; settings: for ALB / ALP / ALT / AST / CHOL / CK / Cr / GLU / TG / TP / Urea: serum
Description: Wistar rats (150–170 g) were divided into the following 3 groups (6 rats /group): 1) vehicle control, 2) DMAMCL at 200 mg/kg, and 3) DMAMCL at 300 mg/kg. DMAMCL was administered orally once a day for 21 days. Rats were weighed on days 0, 3, 7, 11, 14, 17, and 21. Total food intake was measured as the weight of food consumed during a 24-h period on days 3, 8, 15, and 22. On the 23rd day, rats were anesthetized and sacrificed via CO2 asphyxiation. Peripheral blood was collected for hematological and serum biochemical analyses using a blood cell counter (Medonic M16, Boule medical AB, Sweden) and a Hitachi 7180 Automatic Analyzer (Japan). Tissues samples from the liver, spleen, lung, kidney, and brain were collected and embedded in paraffin for H&E staining.

[5] = 200 mg/kg orally once a day for 21 days
[6] = 300 mg/kg orally once a day for 21 days

CC1=C2CC[C@@](C)(O)[C@@H]2[C@H]2OC(=O)[C@@H](CN(C)C)[C@@H]2CC1 [DMAMCL, dimethylaminomicheliolide]
Kp at 0.083 h ([1]; Wistar, rat, brain, rats, 0.083h, read-out: C brain / C plasma): 1.45 | Kp at 0.5 h ([1]; Wistar, rat, brain, rats, 0.5h, read-out: C brain / C plasma): 1.84 | Kp at 3 h ([1]; Wistar, rat, brain, rats, 3h, read-out: C brain / C plasma): 1.91 | concentration at 3 h ([1]; Wistar, rat, brain, read-out: Concentration in rat brain): 4.91 ± 0.869 µg/mL | Tmax ([1]; Wistar, rat, brain, read-out: Time of peak concentration in rat brain): 30 min | concentration at 3 h ([1]; Wistar, rat, plasma, read-out: Concentration in plasma): 2.57 ± 0.968 µg/mL | Concentration in brain compared with plasma ([1]; rats): higher in the brain than in plasma | Concentration in tissues compared with plasma ([1]; rats): dramatically higher in almost all tissues than in plasma | Mean concentration in brain ([1]; rats, 0.083h): 6360 | Mean concentration in plasma ([1]; rats, 0.083h): 4373 µg/mL | Mean concentration in brain ([1]; rats, 0.5h): 18970 | Mean concentration in plasma ([1]; rats, 0.5h): 10310 µg/mL | Mean concentration in brain ([1]; rats, 3h): 4913 | Mean concentration in plasma ([1]; rats, 3h): 2567 µg/mL | Peak concentration in rat brain ([1]; 0.5 hours after administration): 18970 ± 9603 ng/mL | Bax expression (Western blot) [2]: up-regulated Bax expression | Bcl-2 expression (Western blot) [2]: down-regulated Bcl-2 expression | Bax expression (Western blot) [3]: up-regulated Bax expression | Bcl-2 expression (Western blot) [3]: down-regulated Bcl-2 expression | GRAN% [4, 5]: 26.5 ± 3.3% | HCT% [4, 5]: 35.6 ± 1.2% | HGB [4, 5]: 145 ± 12.3 g/L | LYM% [4, 5]: 71.3 ± 6.3% | MCV [4, 5]: 55.5 ± 1.4 fL | MONO% [4, 5]: 2.1 ± 0.3% | PLT [4, 5]: 1195 ± 87 ×10^9/L | RBC [4, 5]: 6.73±1.3 ×10^12/L | RDW% [4, 5]: 18.5 ± 1.1% | WBC [4, 5]: 12.5 ± 2.5 ×10^9/L | GRAN% [4, 6]: 26.3 ± 4.1% | HCT% [4, 6]: 37.7 ± 0.8% | HGB [4, 6]: 140 ± 11.1 g/L | LYM% [4, 6]: 69.9 ± 6.0% | MCV [4, 6]: 53.5 ± 2.3 fL | MONO% [4, 6]: 2.9 ± 0.9% | PLT [4, 6]: 1132 ± 82 ×10^9/L | RBC [4, 6]: 6.37 ± 1.01 ×10^12/L | RDW% [4, 6]: 17.8 ± 0.7% | WBC [4, 6]: 11.9 ± 1.3 ×10^9/L | Toxicity (body weight, daily food intake, histopathology, hematology, serum biochemistry) ([4]; 200 or 300 mg/kg orally once a day for 21 days): did not result in toxicity; also recorded: No significant changes were observed; also recorded: did not lead to toxicity | ALB [4, 5]: 32.5 ± 3.01 g/L | ALP [4, 5]: 190 ± 19 U/L | ALT [4, 5]: 51 ± 10 U/L | AST [4, 5]: 98 ± 12 U/L | CHOL [4, 5]: 1.39 ± 0.67 mM | CK [4, 5]: 423 ± 35 U/L | Cr [4, 5]: 79 ± 23 | GLU [4, 5]: 5.22 ± 2.01 mM | TG [4, 5]: 0.81 ± 0.23 mM | TP [4, 5]: 61.0 ± 4.6 g/L | Urea [4, 5]: 6.45 ± 2.3 mM | ALB [4, 6]: 34 ± 1.98 g/L | ALP [4, 6]: 179 ± 30 U/L | ALT [4, 6]: 49 ± 11 U/L | AST [4, 6]: 111 ± 15 U/L | CHOL [4, 6]: 1.42 ± 0.78 mM | CK [4, 6]: 523 ± 101 U/L | Cr [4, 6]: 80 ± 17 | GLU [4, 6]: 5.23 ± 1.34 mM | TG [4, 6]: 0.69 ± 0.33 mM | TP [4, 6]: 58.3 ± 3.3 g/L | Urea [4, 6]: 7.33 ± 1.02 mM
